Laboratory results: US20200038338A1, “LONG TERM DRUG DELIVERY BY TATTOO” (priority 2018, published 2020)

How the values were obtained:
[1] = tested on: basal cell carcinoma (BCC); assay: Treatment of basal cell carcinoma: vismodegib delivered by tattoo machine
psoriatic plaques = assay: Treatment of psoriasis: methotrexate delivered to the dermal layer by tattoo machine; type: in vivo; conditions: control: 25 mg/ml methotrexate by injection once a month for 9 months
[2] = tested on: terminal hairs of beard or scalp (alopecia); assay: Treatment of alopecia: minoxidil delivered to the dermis by tattoo machine; type: in vivo; conditions: 5 wt % minoxidil suspension in PEG 400 by tattoo to dermis, once every 2 months, after 6 months (3 sessions); versus control side with minoxidil in water to saturation; three subjects
Experimental: A suspension of minoxidil suspension at 5 wt % is created in a PEG 400 vehicle. As a control minoxidil is added to water to saturation. The test and control agents are delivered by tattoo machine to the dermis on independent sides of the face (either beard, eyebrow, or scalp) of the same subject once every 2 months for 6 months (i.e. 3 administrations). Three different subjects were tested. The side that was treated in the beard or scalp had approximately 300% more terminal (thick, strong) hairs per unit area, after 6 months (3 sessions).

[3] = tested on: androgenetic alopecia (hair loss); conditions: minoxidil microinjections once a month for four months; cited from earlier work

With `CS(=O)(=O)c1ccc(C(=O)Nc2ccc(Cl)c(-c3ccccn3)c2)c(Cl)c1` [vismodegib] the “side effects, control” value ([1]; control: vismodegib orally for 6 months) was “muscle tremors, loss of appetite, reduction of smell and taste”, the “BCCs resolved, control” value ([1]; control: vismodegib orally, first 6 months) was 50% and the “clearance of the BCC” value ([1]; vismodegib suspension with polyethylene glycol by tattoo machine, once a week for 6 months) was 90%.

With `CN(Cc1cnc2nc(N)nc(N)c2n1)c1ccc(C(=O)N[C@@H](CCC(=O)O)C(=O)O)cc1` [methotrexate] the “side effects, control” value (psoriatic plaques) was “increased liver enzymes”.

In the case of `Nc1cc(N2CCCCC2)nc(N)[n+]1[O-]` [minoxidil], the “more terminal (thick, strong) hairs per unit area on the treated side” value [2] is listed as “approximately 300%” and the “side effects noted by the subjects” value [3] is listed as “No side effects were noted by the subjects, besides minor localized pain”.
